No end group written: not given here. TAMRA = 5(6)-carboxytetramethylrhodamine
How the values were obtained:
Caco-2 cell monolayers [1] = test: Transcellular electrical resistance (TER) of Caco-2 cell monolayers; format: cell-based, human; conditions: for transcellular electrical resistance (TER): 300 µM
Protocol: (§1) Measurements of Transcellular Electrical Resistance (TER) and Paracellular Permeability. 24-well transwell filters (Millicell-CM, Millipore, Eschborn, Germany) were coated with rat tail collagen (250 µg/cm^2) for 16 h, washed twice with PBS (phosphate buffer saline) and preincubated with DMEM (600 µl basolateral, 400 µl apical for Endohm electrodes and 400 µl basolateral, 500 µl apical for the cellZscope system (nanoAnalytics GmbH, Münster, Germany)) for 24 h. Caco-2 cells (200.000 cell/cm^2) were seeded into the filters and grown to high-resistance TER (> 500 Ω/cm^2) for approx. 4 days. Medium was changed every day.
The experiments were performed as followed: After reaching high and stable TER values, cell monolayers were treated with peptides as described above. Control cells were incubated with respective medium. The TER values were measured at distinct time intervals. For re-arrangement of the monolayer, C1C2 was removed from the Caco-2 cells by exchange of the medium.

Caco-2 cell monolayers [2] = test: Paracellular permeability (permeation coefficient of FD-10 and Lucifer Yellow) of Caco-2 cell monolayers; format: cell-based, human; design: key to Paracellular Permeability: ↑ : increase; -: no change; conditions: for permeation of FD-10: FD-10 (10 kDa); for permeation of FD-10 / permeation of Lucifer Yellow: 48 h after peptide administration; for permeation of Lucifer Yellow: Lucifer Yellow (0.4 kDa); for Paracellular Permeability: summary table of claudin-derived peptides
Protocol: as §1
The permeation studies were performed by addition of 25 µg/ml Lucifer Yellow (0.4 kDa) or FD-10 (fluorescein isothiocyanate-dextran, 10 kDa) in HBSS (Hank's balanced salt solution buffer) on the apical side and HBSS alone on the basolateral side. After 10 min, 100 µl probes were removed from the basolateral side and the fluorescence units were measured by a fluorescence plate reader (Tecan, Crailsheim, Germany) to calculate the PCoeff (permeation coefficient, cm/s). The obtained data were analyzed with GraphPad Prism 3.0 program (GraphPad Software, San Diego, USA).

[3] = test system: perineurium of the sciatic nerve; test: Mechanical nociceptive thresholds (paw pressure threshold, modified Randall-Selitto test) after perineurial injection at the sciatic nerve; format: in vivo, Male Wistar rats; conditions: for Mechanical nociceptive thresholds (PPT) after injection of TTX: 10 µM TTX perineurially after peptide pretreatment (C1C2: 24-48 h); for mechanical nociceptive thresholds before the injection of DAMGO (Baseline) / mechanical nociceptive thresholds in contralateral paws: 400 µM peptide perineurially; for mechanical nociceptive thresholds in contralateral paws: contralateral paw
Source text: Animals. Animal protocols were approved by the animal care committee of the Regierung von Unterfranken and are in accordance with the International Association for the Study of Pain (44). Male Wistar rats weighing 180-220 g were used.
(§2) Perineurial Injection at the Sciatic Nerve. Nociceptive inputs from the rat hind paw travels through the sciatic nerve. Under brief isoflurane anesthesia, the right sciatic nerve was located using a 22 G needle connected to a nerve stimulator (Stimuplex Dig RC; Braun, Melsungen, Germany) as previously described (45). The needle was advanced to the point of maximal stimulation at 0.2 mA. 300 µl of the indicated substances was injected. If more than one injection within half hour was necessary the total injected volume was maintained at 300 µl.
(§3) Peptides were dissolved in 0.9% NaCl and injected perineurially in the indicated concentrations. Measurements (nociceptive thresholds, tissue harvest for Western blot or immunohistochemistry) were undertaken 24-96 h after peptide injection.
Measurements of Nociceptive Thresholds. Mechanical thresholds were determined using the paw pressure algesiometer (modified Randall-Selitto test; Ugo Basile, Comerio, Italy) as described before (47). The pressure required to elicit paw withdrawal, the paw pressure threshold (PPT), was determined in blinded experiments. Averages were calculated from three measurements each. An increase in PPT was interpreted as antinociception (analgesia), a decrease in PPT was interpreted as hyperalgesia (pain). Measurements were taken 10-60 min after injection of 100 µl containing 30 µg DAMGO or 10 µM TTX. The optimal doses of DAMGO or TTX have been evaluated in pilot studies (data not shown), but are similar to doses used for intraplantar injection in rats.

claudin-1 [4] = target: T1, claudin-1 (Rattus norvegicus, UniProt P56745); test: Immunohistochemistry of claudin-1 in the sciatic nerve after perineurial injection; format: in vivo; conditions: 400 µM perineurial injection, after 24 h
T1 construct: from tissue; host or cells: sciatic nerve (perineurium) of male Wistar rats
T1 sequence (P56745 1-211): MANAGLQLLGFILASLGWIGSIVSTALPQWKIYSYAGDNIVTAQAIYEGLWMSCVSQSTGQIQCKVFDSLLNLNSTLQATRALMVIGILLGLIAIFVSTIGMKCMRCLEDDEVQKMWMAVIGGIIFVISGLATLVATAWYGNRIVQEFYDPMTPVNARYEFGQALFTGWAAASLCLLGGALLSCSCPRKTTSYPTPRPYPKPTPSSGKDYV
Protocol: as §2, §3
The sciatic nerve was embedded in tissue-Tek compound (O.C.T., Miles Inc. Elkhart, Indiana) for claudin-1 staining. Sections (7-10 µm) were mounted onto gelatin-coated slides. Sections were fixed with acetone for 10 min at 4°C, washed in 0.01 M PBS (pH 7.4) for 10 min, incubated for 120 min in PBS containing 1% Triton X-100, washed in 0.01 M PBS and incubated for 30 min in 3% bovine serum albumin plus 1% normal goat serum blocking solution to prevent nonspecific binding. […] Finally, the sections were mounted and analyzed using the laser scanning microscope (Zeiss, Jena, Germany).

claudin-1 [5] = target: T2, claudin-1 (Homo sapiens, UniProt O95832); test: Immunocytochemistry of claudin-1 and ZO-1 in Caco-2 cell monolayers; format: cell-based; conditions: 300 µM, 24 and 48 h after treatment
T2 construct: Caco-2 cells express several TJ proteins; endogenous in cells; host or cells: Caco-2
T2 sequence (O95832 1-211): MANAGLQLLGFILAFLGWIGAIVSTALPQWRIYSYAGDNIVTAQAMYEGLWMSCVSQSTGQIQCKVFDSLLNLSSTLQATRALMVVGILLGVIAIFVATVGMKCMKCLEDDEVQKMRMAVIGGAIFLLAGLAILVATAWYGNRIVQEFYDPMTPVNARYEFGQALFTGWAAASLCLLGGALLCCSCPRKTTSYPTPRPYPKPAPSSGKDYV
Protocol: Immunocytochemistry. Immunocytochemistry was performed as previously described (46). Caco-2 cells were transferred into 6-well plates containing collagen-coated cover-slips and grown to 60-70% confluence before use. Cells were treated with C1C2 (300 µM) as well as the control treated without peptide for 24 and 48 h, respectively. The medium was changed, followed by incubation with rabbit anti-claudin-1 and rabbit anti-ZO-1 (zonula occludens protein) antibodies and incubated with Alexa-Fluor 488-conjugated goat anti-rabbit secondary antibody. Cells were analyzed with the confocal microscope.

claudin-1 [6] = target: T1, claudin-1; test: Western blot of claudin-1 in sciatic nerve fractions after perineurial injection; format: in vivo; conditions: 400 µM perineurial injection
Protocol: as §2, §3
Western Blot Analysis. […] Extracted protein was diluted in lysis buffer and quantified using the BCA protein assay reagent (Pierce, Rockford, IL, USA) and a plate reader (Tecan, Grödig, Austria). […] Proteins were detected using specific antibodies against claudin-1 (Invitrogen, Carlsbad, CA, USA) and as protein loading control […]-actin (Sigma Aldrich, Taufkirchen, Germany), respectively. Visualization was done by luminescence.

[7] = test system: HEK-293 cells stably transfected with claudin-1-YFP; test: Confocal microscopy of peptide internalization in claudin-1-YFP expressing HEK-293 cells; format: cell-based, human; conditions: 40 µM
Protocol: (§4) Cell Culture. Caco-2 (colorectal adenocarcinoma) cells (41) were grown in a humidified atmosphere at 37 °C and 10% CO2, whereas HEK-293 (human embryonic kidney) cells (42) and HEK-293 cells stably transfected with claudin-1-YFP (yellow fluorescence protein) (43) were grown at 37 °C and 5% CO2. Cells were cultured in DMEM (Dulbecco's modified Eagle's medium) containing 10% fetal calf serum, 100 units/ml penicillin, 100 µg/ml streptomycin, and 1% L-analyl-L-glutamine.
(§5) Confocal Microscopy. HEK-293 cells and stably claudin-1-YFP expressing HEK-293 cells were transferred into 6-well plates containing collagen-coated cover-slips as described above and grown to 60-70% confluence. Then, cells were treated with the TAMRA-labeled peptide (40 µM) for 15 min, 35 min, and 24 h, respectively. Pluronic ®F-68 (0.0012%) was added as solution enhancer. After removing of the peptide, cells were analyzed with the LSM 510 Meta confocal microscope (Zeiss, Jena, Germany).

wild type HEK-293 cells = test: Confocal microscopy of peptide internalization in wild type HEK-293 cells; format: cell-based, human; conditions: 40 µM, 24 h
Protocol: as §4, §5

## ESATHSTGITQSDIYSTLLGLPADIQAAQ-NH2 [Peptide C2C2, peptide from the C-terminal part of the ECL1 of rat claudin-2, same modifications as C1C2, applied as negative control, reference compound]
Caco-2 cell monolayers [1]; bilateral treatment, 24 h
  transcellular electrical resistance (TER): unaffected
Caco-2 cell monolayers [2]
  permeation of FD-10: did not influence
  permeation of Lucifer Yellow: did not influence
[3]
  Mechanical nociceptive thresholds (PPT) after injection of TTX: unchanged
[3]; DAMGO perisciatic 0-4 d after perineurial peptide (400 µM)
  Mechanical nociceptive thresholds (paw pressure threshold, PPT) after injection of DAMGO: unchanged

## SSVSQSTGQIQSKVFDSLLNLNSTLQATR-NH2 [Peptide C1C2, 29 amino acid peptide derived from the C-terminal part of the ECL1 of rat claudin-1, Cys54/Cys64 substituted by serines, C-terminally amidated]
claudin-1 [4]
  claudin-1 immunoreactivity in the perineurium: decreased
Caco-2 cell monolayers [1]; apical treatment
  transcellular electrical resistance (TER): significant reduction of the TER, but less efficient then the bilateral treatment
Caco-2 cell monolayers [1]; bilateral application of 100, 200, and 300 µM
  TER: Time- and concentration-dependent reduction
Caco-2 cell monolayers [1]; bilateral treatment, 24 h
  transcellular electrical resistance (TER): significant reduction
Caco-2 cell monolayers [1]; peptide removed at 48 h, read 24 h later, i.e. after 72 h
  recovery of the cell monolayer (barrier integrity) after removing peptide: Complete recovery
claudin-1 [5]
  membrane-localized claudin-1: clear decrease
Caco-2 cell monolayers [2]
  permeation of FD-10: increased
  permeation of Lucifer Yellow: increased
  Paracellular Permeability: ↑
[3]
  Mechanical nociceptive thresholds (PPT) after injection of TTX: enhanced the effect of TTX
[3]; 0 h
  mechanical nociceptive thresholds before the injection of DAMGO (Baseline): 77.67 ± 1.8 g
  mechanical nociceptive thresholds in contralateral paws: 77.33 ± 1.3 g
[3]; 24 h
  mechanical nociceptive thresholds before the injection of DAMGO (Baseline): 74.67 ± 3.00 g
  mechanical nociceptive thresholds in contralateral paws: 63.33 ± 2.36 g
[3]; 48 h
  mechanical nociceptive thresholds before the injection of DAMGO (Baseline): 68.0 ± 2.02 g
  mechanical nociceptive thresholds in contralateral paws: 67.67 ± 2.03 g
[3]; 72 h
  mechanical nociceptive thresholds before the injection of DAMGO (Baseline): 69.00 ± 1.861 g
  mechanical nociceptive thresholds in contralateral paws: 65.0 ± 1.25 g
[3]; 96 h
  mechanical nociceptive thresholds before the injection of DAMGO (Baseline): 73.3 ± 2.87 g
  mechanical nociceptive thresholds in contralateral paws: 67.67 ± 2.09 g
[3]; 24 h after perineurial 100 µM peptide, 10 min after 30 µg DAMGO
  mechanical nociceptive thresholds (PPT) after DAMGO: increase
[3]; 48 h after perineurial 400 µM peptide, 10 min after 30 µg DAMGO
  PPT after DAMGO: Significant increases
claudin-1 [6]; 24 h and 48 h, membrane fraction
  claudin-1 protein expression in the membrane: decreased
claudin-1 [6]; cytosol fraction
  claudin-1 protein expression in the cytosol: No change

## TAMRA-SSVSQSTGQIQSKVFDSLLNLNSTLQATR-NH2 ({TAMRA}-SSVSQSTGQIQSKVFDSLLNLNSTLQATR-NH2) [TAMRA-C1C2, C1C2 N-terminally labeled with TAMRA (5(6)-carboxytetramethylrhodamine)]
[7]
  intracellular co-localization with claudin-1-YFP: mainly co-localized
[7]; 24 h after treatment
  membrane-localized claudin-1-YFP: decrease
[7]; 15 min, 35 min, 24 h
  internalization: internalized
Caco-2 cell monolayers [2]
  Paracellular Permeability: ↑
Wild type HEK-293 cells
  internalization: weak unspecific internalization

From patent EP2561886A1, “Peptide adjuvant for improved peripheral analgesia” (Forschungsverbund Berlin e.V., priority 2011, dated 2013)
